ChEMBL document CHEMBL4665673, “Monomeric Targeted Protein Degraders” (J Med Chem, 2020)
One block for each compound: values may come before it. Square brackets hold non-standard residues; d marks the D form. Peptide text beside a SMILES is read from it. Dip = N[C@H](C(=O)O)C(c1ccccc1)c1ccccc1; Chg = N[C@H](C(=O)O)C1CCCCC1; NMeA = CN[C@@H](C)C(=O)O

Tests used:
[1] = target: Non-receptor tyrosine-protein kinase TYK2 (Homo sapiens, UniProt P29597); experiment: Inhibition of human TYK2 using 5FAM-KKSRGDYMTMQID as substrate by caliper microfluidic mobility shift assay
[2] = target: T1, Tyrosine-protein kinase JAK3 (Homo sapiens, UniProt P52333); experiment: Inhibition of human JAK3 using FITC-KGGEEEEYFELVKK as substrate by caliper microfluidic mobility shift assay
T1 sequence (P52333 whole entry): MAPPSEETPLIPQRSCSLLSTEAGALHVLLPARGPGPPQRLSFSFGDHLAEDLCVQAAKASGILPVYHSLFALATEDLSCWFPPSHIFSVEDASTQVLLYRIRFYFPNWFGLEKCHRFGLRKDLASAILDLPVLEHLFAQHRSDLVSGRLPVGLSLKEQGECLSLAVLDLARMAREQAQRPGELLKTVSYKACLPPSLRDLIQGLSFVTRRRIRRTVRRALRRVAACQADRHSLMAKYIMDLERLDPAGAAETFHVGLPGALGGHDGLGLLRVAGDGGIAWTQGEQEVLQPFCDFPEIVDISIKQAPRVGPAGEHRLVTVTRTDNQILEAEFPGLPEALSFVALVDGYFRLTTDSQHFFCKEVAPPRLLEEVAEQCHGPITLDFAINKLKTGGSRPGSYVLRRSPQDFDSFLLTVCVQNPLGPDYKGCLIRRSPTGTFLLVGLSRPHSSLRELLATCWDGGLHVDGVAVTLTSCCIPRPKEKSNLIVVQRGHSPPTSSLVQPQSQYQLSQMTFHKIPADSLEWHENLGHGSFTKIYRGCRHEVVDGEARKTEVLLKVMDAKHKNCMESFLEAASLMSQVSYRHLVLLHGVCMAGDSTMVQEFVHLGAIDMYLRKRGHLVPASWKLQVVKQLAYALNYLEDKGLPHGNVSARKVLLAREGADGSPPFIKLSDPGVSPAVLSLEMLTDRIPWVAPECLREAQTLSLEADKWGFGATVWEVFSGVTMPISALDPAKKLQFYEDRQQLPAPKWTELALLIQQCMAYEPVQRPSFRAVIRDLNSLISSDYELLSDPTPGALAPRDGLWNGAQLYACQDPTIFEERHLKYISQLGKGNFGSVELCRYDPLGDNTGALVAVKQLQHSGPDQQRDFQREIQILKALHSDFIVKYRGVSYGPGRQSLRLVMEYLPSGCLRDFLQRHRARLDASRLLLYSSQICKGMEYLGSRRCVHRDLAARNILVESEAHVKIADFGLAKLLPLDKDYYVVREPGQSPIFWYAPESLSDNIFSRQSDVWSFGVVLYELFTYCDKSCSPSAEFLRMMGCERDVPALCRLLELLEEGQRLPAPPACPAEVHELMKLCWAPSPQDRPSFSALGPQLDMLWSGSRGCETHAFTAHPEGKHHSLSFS

[3] = Downregulation of JAK2 mRNA expression in human PBMC at 1 uM after 22 hrs by qPCR analysis relative to control; type: functional
[4] = Downregulation of JAK3 mRNA expression in human PBMC at 1 uM after 22 hrs by qPCR analysis relative to control; type: functional
[5] = target: Tyrosine-protein kinase JAK1 (Homo sapiens, UniProt P23458); experiment: Inhibition of human JAK1 using 5FAM-KKSRGDYMTMQID as substrate by caliper microfluidic mobility shift assay
[6] = target: Tyrosine-protein kinase JAK2 (Homo sapiens, UniProt O60674); experiment: Inhibition of human JAK2 using FITC-KGGEEEEYFELVKK as substrate by caliper microfluidic mobility shift assay
[7] = target: T2, Androgen receptor (Homo sapiens, UniProt P10275); experiment: Inhibition of androgen receptor LBD domain (unknown origin)
T2 sequence (P10275 whole entry): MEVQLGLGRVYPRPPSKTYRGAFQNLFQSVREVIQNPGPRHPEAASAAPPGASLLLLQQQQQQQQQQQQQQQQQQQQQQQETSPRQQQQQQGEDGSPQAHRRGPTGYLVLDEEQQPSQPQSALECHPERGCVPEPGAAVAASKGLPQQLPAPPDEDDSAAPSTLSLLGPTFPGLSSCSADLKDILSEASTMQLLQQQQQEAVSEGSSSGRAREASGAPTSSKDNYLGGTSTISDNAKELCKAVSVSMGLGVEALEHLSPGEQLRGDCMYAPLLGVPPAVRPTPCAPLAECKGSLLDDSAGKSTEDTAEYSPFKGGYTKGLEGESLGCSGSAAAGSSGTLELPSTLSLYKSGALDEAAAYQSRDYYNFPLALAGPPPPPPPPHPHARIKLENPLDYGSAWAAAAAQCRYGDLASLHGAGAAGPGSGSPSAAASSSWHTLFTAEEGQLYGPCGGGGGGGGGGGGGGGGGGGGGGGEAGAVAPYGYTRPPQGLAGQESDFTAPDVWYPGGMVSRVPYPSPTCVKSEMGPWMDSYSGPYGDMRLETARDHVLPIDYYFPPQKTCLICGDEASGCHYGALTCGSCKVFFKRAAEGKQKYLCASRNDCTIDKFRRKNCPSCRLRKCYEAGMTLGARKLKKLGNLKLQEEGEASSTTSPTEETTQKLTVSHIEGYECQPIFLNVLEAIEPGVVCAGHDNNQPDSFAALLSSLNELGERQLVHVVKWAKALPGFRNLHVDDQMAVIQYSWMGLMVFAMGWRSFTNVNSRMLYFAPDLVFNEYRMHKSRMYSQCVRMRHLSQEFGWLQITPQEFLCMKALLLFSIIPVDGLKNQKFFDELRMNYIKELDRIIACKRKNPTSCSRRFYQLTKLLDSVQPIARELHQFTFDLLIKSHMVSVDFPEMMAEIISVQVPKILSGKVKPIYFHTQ

[8] = Antiproliferative activity against human SK-N-BE2 cells after 72 hrs by CyQUANT reagent based assay relative to control; type: functional; settings: SKNBE2
[9] = target: E3 ubiquitin-protein ligase XIAP (Homo sapiens, UniProt P98170); experiment: Binding affinity to XIAP-BIR3 (unknown origin) (124 to 240 residues) expressed in Escherichia coli BL21-Gold (DE3) by surface plasmon resonance assay
[10] = target: Baculoviral IAP repeat-containing protein 2 (Homo sapiens, UniProt Q13490); experiment: Binding affinity to c-IAP1-BIR3 (unknown origin) (124 to 240 residues) expressed in Escherichia coli BL21-Gold (DE3) by surface plasmon resonance assay
[11] = target: T3, B-cell lymphoma 6 protein (Homo sapiens, UniProt P41182, C67R/C84N/C8Q); experiment: Inhibition of BCOR peptide binding to BCL6 BTB domain (5 to 129 residues) C8Q/C67R/C84N triple mutant (unknown origin) expressed in Escherichia coli BL21(DE3) cells preincubated for 30 mins followed by BCOR ULight peptide addition and measured after 240 mins by TR-FRET assay
[12] = target: B-cell lymphoma 6 protein (Homo sapiens) (UniProt P41182); experiment: Induction of BCL6 degradation in human SU-DHL-4 cells at 5 uM measured after 2 hrs by capillary electrophoresis relative to control; type: cell-based
[13] = target: B-cell lymphoma 6 protein (Homo sapiens) (UniProt P41182); experiment: Induction of BCL6 degradation in human SU-DHL-4 cells at 5 uM measured after 5 mins by capillary electrophoresis relative to control; type: cell-based
[14] = target: Leucine-rich repeat serine/threonine-protein kinase 2 (Homo sapiens, UniProt Q5S007, G2019S); experiment: Inhibition of LRRK2 G2019S mutant (unknown origin)
[15] = target: T3, B-cell lymphoma 6 protein; experiment: Inhibition of BCL6 BTB domain (5 to 129 residues) C8Q/C67R/C84N triple mutant (unknown origin) expressed in Escherichia coli BL21(DE3) cells using 5-TAMRA-RSEIISTAPSSWVVPG incubated for 1 hr by fluorescence polarization assay
[16] = cells; settings: Homo sapiens, SKNBE2, 72 h
[17] = target: Histone-lysine N-methyltransferase EZH2 (Homo sapiens, UniProt Q15910); experiment: Binding affinity to EZH2 (unknown origin)
[18] = Selectivity ratio of IC50 for human IOSE144 cells to IC50 for human OVCAR3 cells; type: functional
[19] = test system: A2780; experiment: Growth inhibition of human A2780 cells incubated for 48 hrs by MTT assay; type: functional, cell-based; settings: A2780, 48 h
[20] = test system: OVCAR-3; experiment: Growth inhibition of human OVCAR3 cells incubated for 48 hrs by MTT assay; type: functional, cell-based; settings: OVCAR-3, 48 h
[21] = Selectivity ratio of IC50 for human IOSE144 cells to IC50 for human A2780 cells; type: functional

Sequence of Leucine-rich repeat serine/threonine-protein kinase 2 (Q5S007 whole entry G2019S, the tested form may be a part): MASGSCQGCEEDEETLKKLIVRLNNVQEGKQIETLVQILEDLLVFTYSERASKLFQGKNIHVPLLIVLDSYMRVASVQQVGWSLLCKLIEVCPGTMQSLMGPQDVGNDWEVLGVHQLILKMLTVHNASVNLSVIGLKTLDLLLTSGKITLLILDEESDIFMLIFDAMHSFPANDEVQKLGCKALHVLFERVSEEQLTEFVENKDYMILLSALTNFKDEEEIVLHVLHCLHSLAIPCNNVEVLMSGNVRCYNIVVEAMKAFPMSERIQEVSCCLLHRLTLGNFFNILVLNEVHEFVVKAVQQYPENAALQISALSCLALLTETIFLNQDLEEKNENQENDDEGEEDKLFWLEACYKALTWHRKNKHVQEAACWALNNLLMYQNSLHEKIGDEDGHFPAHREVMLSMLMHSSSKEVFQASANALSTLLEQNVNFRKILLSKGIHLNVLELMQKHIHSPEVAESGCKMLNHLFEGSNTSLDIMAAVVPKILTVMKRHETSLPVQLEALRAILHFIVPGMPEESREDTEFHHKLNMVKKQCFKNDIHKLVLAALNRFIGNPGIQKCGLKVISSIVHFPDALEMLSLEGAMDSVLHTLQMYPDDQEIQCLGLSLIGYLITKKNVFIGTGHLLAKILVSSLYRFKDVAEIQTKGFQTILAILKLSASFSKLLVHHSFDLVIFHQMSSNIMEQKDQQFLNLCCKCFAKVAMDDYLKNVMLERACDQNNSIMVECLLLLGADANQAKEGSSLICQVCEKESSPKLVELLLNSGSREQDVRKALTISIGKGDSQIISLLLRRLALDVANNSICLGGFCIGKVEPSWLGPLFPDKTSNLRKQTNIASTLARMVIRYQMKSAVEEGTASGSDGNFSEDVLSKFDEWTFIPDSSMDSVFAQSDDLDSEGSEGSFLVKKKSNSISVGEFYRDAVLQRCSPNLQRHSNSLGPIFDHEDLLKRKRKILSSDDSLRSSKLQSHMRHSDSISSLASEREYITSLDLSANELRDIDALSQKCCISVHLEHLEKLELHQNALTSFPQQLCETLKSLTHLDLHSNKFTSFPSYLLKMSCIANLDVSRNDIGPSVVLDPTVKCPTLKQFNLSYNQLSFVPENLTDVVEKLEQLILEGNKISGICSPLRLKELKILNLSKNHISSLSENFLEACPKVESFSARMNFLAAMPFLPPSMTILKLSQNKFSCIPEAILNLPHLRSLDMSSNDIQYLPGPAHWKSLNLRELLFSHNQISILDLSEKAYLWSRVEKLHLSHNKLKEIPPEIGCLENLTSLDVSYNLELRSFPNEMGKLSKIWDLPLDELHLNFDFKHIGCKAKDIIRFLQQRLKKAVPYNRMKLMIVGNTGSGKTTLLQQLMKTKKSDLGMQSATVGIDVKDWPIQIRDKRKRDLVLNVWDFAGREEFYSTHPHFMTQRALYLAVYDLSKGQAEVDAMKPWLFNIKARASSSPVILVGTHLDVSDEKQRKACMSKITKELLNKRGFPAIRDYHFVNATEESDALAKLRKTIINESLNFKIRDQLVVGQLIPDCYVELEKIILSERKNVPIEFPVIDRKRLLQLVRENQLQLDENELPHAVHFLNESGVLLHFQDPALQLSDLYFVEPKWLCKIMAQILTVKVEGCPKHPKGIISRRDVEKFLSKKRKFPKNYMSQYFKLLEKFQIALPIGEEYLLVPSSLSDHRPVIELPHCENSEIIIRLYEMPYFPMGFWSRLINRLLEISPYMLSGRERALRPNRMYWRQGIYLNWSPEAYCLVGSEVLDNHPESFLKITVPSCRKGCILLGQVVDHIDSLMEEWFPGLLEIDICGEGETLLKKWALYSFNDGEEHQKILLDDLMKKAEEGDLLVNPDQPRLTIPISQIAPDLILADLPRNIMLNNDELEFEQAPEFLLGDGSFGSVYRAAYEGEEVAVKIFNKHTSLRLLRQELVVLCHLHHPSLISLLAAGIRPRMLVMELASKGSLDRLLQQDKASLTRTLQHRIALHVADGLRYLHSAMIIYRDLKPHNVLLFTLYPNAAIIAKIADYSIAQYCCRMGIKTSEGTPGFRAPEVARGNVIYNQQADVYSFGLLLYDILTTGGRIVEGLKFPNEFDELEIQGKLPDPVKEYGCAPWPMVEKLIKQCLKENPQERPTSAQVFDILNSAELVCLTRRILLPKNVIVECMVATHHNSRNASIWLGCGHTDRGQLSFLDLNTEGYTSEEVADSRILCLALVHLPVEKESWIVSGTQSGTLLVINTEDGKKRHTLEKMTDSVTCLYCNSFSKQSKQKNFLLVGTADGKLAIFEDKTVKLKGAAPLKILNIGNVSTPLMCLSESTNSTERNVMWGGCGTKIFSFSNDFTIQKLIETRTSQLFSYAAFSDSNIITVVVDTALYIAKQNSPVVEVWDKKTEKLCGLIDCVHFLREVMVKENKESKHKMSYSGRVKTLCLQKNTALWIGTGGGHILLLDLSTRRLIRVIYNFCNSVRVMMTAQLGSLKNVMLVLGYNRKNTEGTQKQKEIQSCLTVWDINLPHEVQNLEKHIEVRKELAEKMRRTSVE
Sequence of Histone-lysine N-methyltransferase EZH2 (Q15910 whole entry): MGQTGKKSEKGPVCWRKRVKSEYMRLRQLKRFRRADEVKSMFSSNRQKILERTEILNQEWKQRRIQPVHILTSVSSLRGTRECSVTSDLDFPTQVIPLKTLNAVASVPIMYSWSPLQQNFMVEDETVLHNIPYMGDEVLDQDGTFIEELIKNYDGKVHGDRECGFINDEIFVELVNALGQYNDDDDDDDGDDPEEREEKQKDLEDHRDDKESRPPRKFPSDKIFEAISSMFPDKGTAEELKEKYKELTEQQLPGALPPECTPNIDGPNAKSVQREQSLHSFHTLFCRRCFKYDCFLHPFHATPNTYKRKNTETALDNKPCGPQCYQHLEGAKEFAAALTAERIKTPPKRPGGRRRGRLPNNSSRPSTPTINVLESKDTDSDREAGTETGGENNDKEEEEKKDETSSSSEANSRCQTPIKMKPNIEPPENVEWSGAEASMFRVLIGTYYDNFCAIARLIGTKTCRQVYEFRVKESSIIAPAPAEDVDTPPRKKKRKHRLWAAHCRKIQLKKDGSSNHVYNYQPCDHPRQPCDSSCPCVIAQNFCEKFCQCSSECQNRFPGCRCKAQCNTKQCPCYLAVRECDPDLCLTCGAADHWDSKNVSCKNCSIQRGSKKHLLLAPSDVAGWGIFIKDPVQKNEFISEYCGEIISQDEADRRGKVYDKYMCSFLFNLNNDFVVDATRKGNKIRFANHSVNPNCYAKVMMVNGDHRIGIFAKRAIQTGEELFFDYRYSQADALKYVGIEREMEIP
Sequence of Tyrosine-protein kinase JAK2 (O60674 whole entry, the tested form may be a part): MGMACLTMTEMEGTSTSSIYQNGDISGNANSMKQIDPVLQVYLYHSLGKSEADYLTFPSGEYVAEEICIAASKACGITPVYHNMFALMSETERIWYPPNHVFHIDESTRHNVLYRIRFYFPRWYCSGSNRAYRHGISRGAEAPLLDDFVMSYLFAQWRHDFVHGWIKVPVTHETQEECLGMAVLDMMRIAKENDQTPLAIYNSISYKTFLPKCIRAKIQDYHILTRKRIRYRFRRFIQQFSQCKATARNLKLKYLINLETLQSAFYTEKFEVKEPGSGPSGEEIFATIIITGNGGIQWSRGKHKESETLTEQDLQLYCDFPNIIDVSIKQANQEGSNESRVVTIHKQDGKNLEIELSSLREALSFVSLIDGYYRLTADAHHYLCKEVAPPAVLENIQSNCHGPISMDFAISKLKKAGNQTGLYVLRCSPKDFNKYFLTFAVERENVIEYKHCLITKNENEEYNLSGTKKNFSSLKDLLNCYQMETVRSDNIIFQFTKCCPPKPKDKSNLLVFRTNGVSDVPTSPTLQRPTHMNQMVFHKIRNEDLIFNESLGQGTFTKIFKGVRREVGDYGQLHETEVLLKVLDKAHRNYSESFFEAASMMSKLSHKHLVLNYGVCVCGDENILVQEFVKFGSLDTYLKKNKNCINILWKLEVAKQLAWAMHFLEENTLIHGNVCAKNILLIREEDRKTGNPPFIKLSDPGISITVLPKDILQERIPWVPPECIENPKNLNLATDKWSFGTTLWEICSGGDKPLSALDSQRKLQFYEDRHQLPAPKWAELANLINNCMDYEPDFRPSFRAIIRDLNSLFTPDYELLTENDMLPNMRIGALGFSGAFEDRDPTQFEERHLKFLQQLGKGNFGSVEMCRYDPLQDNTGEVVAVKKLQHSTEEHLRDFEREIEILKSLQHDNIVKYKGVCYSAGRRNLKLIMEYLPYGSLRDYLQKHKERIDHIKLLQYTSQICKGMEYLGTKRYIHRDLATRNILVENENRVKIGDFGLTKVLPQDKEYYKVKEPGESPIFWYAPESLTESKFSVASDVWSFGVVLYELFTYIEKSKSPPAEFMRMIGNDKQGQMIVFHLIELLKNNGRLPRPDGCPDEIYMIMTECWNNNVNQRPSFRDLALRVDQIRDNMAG
Sequence of E3 ubiquitin-protein ligase XIAP (P98170 whole entry, the tested form may be a part): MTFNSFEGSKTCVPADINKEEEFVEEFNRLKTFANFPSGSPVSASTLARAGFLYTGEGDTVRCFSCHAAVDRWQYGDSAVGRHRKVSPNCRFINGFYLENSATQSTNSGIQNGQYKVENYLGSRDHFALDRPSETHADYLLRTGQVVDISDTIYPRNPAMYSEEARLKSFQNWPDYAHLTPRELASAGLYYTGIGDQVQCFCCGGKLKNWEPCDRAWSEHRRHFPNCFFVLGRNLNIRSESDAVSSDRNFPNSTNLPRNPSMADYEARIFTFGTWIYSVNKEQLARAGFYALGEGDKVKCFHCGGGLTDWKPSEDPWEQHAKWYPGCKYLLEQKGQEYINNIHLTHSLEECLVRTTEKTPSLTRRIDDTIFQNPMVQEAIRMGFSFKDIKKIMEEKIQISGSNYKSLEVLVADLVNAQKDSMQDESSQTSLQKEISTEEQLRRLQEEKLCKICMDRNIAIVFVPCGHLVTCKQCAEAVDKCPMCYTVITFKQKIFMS

- IC50 [1]: 128 nM
- IC50 [2]: 2.8 nM
- IC50 [5]: 7.5 nM
- IC50 [6]: 7.1 nM
Compound: C[C@@H]1CCN(C(=O)N2CCCC2)C[C@@H]1N(C)c1ncnc2[nH]ccc12
- Activity [3]: 50%
- Activity [4]: 50%

- Ki [7]: 5000 nM
Compound: CC(=O)N1CCN(CCOc2ccc(C3CCN(C4=Nn5c(nnc5C(F)(F)F)CC4)CC3)cc2)CC1 [AZD3514]

Compound: COc1cc(Nc2ncc3c(n2)-c2ccc(Cl)cc2C(c2c(F)cccc2OC)=NC3)ccc1C(=O)O [ALISERTIB]
- Emax [8]: 37%

- Kd [9]: 16 nM
- Kd [10]: 6 nM
Compound: CN[C@@H](C)C(=O)N[C@H](C(=O)N1CCC[C@H]1C(=O)N[C@H](C(=O)OC)C(c1ccccc1)c1ccccc1)C1CCCCC1 (H-[NMeA][Chg]P[Dip]-OMe)

- IC50 [11]: 3 nM
- Activity [12]: > 90%
- Activity [13]: 50%
Compound: CNC(=O)COc1cc2cc(Nc3nc(N4C[C@H](C)C[C@H](C)C4)ncc3Cl)cc(OC)c2n(C)c1=O

- Ki [14]: 0.6 nM
Compound: CNc1nc(Nc2cn(C(C)(C)C#N)nc2C)ncc1C(F)(F)F [DNL-201]

- IC50 [15]: 18000 nM
Compound: Cc1cc(C)n(-c2ncc(Cl)c(Nc3ccc(Cl)cc3)n2)n1

- EC50 [16]: 223 nM
Compound: O=C(Nc1ccc(Nc2nccc(Nc3cc(C4CCCC4)[nH]n3)n2)cc1)Nc1cccc(C(F)(F)F)c1
- Emax [8]: 14%

- Kd [17]: 182 nM
Compound: CC(C)=CCC/C(C)=C/Cc1c(O)c(CC=C(C)C)c2c(c1O)C(=O)C1=CC3CC4C(C)(C)OC(C/C=C(\C)C(=O)O)(C3=O)C14O2 (stereo unspecified)

- Ki [14]: 1 nM
Compound: CCNc1nc(Nc2cc(F)c(C(=O)N3CCOCC3)cc2OC)ncc1C(F)(F)F

- Kd [17]: 116 nM
Compound: CCOCCNC(=O)/C(C)=C/CC12OC(C)(C)C3CC(C=C4C(=O)c5c(O)c(C/C=C(\C)CCC=C(C)C)c(O)c(CC=C(C)C)c5OC431)C2=O (stereo unspecified)

- Activity [12]: > 90%
- Activity [13]: 50%
Compound: CNC(=O)COc1cc2cc(Nc3nc(N4CCC(C(=O)N(C)C)CC4)ncc3Cl)cc(OC)c2n(C)c1=O

- IC50 [19]: 1000 nM
- IC50 [20]: 1000 nM
Compound: C[C@H]1[C@@H](O)O[C@@H]2O[C@@]3(C)CC[C@H]4[C@H](C)CC[C@@H]1[C@@]24OO3 [ARTENIMOL]
- Ratio IC50 [18]: 5
- Ratio IC50 [21]: 5
